The values below come from patent publication US10562850B2, “Human plasma kallikrein inhibitors” (priority 2015, dated 2020).

The target in the experiment is human plasma kallikrein (Homo sapiens (Human), UniProt P03952). The experiment can be described thus: Plasma Kallikrein Activity Assay (chromogenic substrate S2302). Format: biochemical. The note with it: 2 nM kallikrein, 80 μM S2302, 30° C., pH 7.8; Cheng-Prusoff. As to the method: Plasma Kallikrein Activity Assay.
Sequence of human plasma kallikrein (P03952 391-638): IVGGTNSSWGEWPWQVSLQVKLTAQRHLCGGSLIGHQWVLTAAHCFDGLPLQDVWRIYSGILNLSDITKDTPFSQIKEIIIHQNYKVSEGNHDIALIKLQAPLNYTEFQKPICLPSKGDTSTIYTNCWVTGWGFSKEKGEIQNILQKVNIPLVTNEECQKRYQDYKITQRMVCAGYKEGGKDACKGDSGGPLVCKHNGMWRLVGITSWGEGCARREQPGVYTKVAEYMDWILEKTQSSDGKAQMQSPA
Sequence of human plasma kallikrein (P03952 20-390 partner): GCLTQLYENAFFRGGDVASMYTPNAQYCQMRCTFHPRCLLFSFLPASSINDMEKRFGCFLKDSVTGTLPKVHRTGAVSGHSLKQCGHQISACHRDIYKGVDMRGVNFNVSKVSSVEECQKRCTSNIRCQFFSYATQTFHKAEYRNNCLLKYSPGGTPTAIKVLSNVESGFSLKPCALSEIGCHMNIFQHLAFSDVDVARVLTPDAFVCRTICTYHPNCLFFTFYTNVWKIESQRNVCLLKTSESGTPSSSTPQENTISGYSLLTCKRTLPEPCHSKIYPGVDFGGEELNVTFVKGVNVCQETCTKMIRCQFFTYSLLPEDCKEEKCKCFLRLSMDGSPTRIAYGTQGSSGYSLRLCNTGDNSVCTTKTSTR
The effect of compounds of the invention on human plasma kallikrein activity was determined using the chromogenic substrates (DiaPharma Group, Inc., West Chester, Ohio, USA). In these experiments, 2 nM kallikrein (Enzyme Research Laboratories, South Bend, Ind., USA) was incubated with 80 μM S2302 (H-D-Pro-Phe-Arg-p-nitroaniline) in the absence or presence of increasing concentrations of compounds of the invention in a final volume of 200 μL Tris-HCl buffer (200 mM NaCl; 2.5 mM CaCl2; 50 mM Tris-HCl, pH 7.8).
After incubation at 30° C., the activity of kallikrein was measured as a change in absorbance at OD 405 nm using BioTek PowerWave X340 Microplate Reader (Winooski, Vt., USA). Data were analyzed using SigmaPlot software (Systat Software, Inc., San Jose, Calif., USA) (Four Parameter Logistic Curve). Ki values for the inhibitors were determined using the Cheng-Prusoff equation (Biochem. Pharmacol. 1973, 22, 3099).
The compound `CO[C@@H]1C[C@@H](C(=O)Nc2cc(C(CCC3CC3)(N[S@+]([O-])C(C)(C)C)c3cccc(C#N)c3)ccc2F)N(C(=O)N(C)c2ccc(Cl)cc2)C1` (stereo partly drawn) [Compound 6d, (2S,4R)-N1-(4-chlorophenyl)-N2-(5-(1-(3-cyanophenyl)-3-cyclopropyl-1-((R)-1,1-dimethylethylsulfinamido)propyl)-2-fluorophenyl)-4-methoxy-N1-methylpyrrolidine-1,2-dicarboxamide] came in with an inhibition constant Ki of over 100 nM.

On to `CC(=O)O[C@@H]1C[C@H](C(=O)Nc2cc(C(N)(CCC3CC3)c3cccc(C#N)c3)ccc2F)N(C(=O)Nc2ccc(Cl)cn2)C1` (stereo partly drawn) [Compound 14g, (3R,5R)-5-(5-((+)-1-amino-1-(3-cyanophenyl)-3-cyclopropylpropyl)-2-fluorophenylcarbamoyl)-1-(5-chloropyridin-2-ylcarbamoyl)pyrrolidin-3-yl acetate], for which the Ki was over 100 nM.

As to `CO[C@@H]1C[C@H](C(=O)Nc2cc(C(N)(CCC3CC3)c3ccncc3)ccc2F)N(C(=O)c2ccc(F)c(N)c2)C1` (stereo partly drawn) [Compound 85a, (2R,4R)-N-(5-((+)-1-amino-3-cyclopropyl-1-(pyridin-4-yl)propyl)-2-fluorophenyl)-1-(3-amino-4-fluorobenzoyl)-4-methoxypyrrolidine-2-carboxamide], the Ki was over 100 nM.

For the compound `CC(C)(C)[S@@+]([O-])NC(CCC1CC1)(c1cccc(C#N)c1)c1ccc(F)c(NC(=O)[C@H]2C[C@@H](O)CN2C(=O)Nc2ccc(Cl)cc2)c1` (stereo partly drawn) [Compound 4f, (2R,4R)-N1-(4-chlorophenyl)-N2-(5-((−)-1-(3-cyanophenyl)-3-cyclopropyl-1-((R)-1,1-dimethylethylsulfinamido)propyl)-2-fluorophenyl)-4-hydroxypyrrolidine-1,2-dicarboxamide], the inhibition constant Ki is 50 to 100 nM.

For the compound `CO[C@@H]1C[C@H](C(=O)Nc2cc(C(N)(CCC3CC3)c3ccncc3)ccc2F)N(C(=O)Nc2ccc(Cl)cc2)C1` (stereo partly drawn) [Compound 71a, (2R,4R)-N2-(5-((+)-1-amino-3-cyclopropyl-1-(pyridin-4-yl)propyl)-2-fluorophenyl)-N1-(4-chlorophenyl)-4-methoxypyrrolidine-1,2-dicarboxamide], the Ki is under 50 nM.

`CO[C@@H]1C[C@H](C(=O)Nc2cc(C(N)(CCC3CC3)c3cccc(C#N)c3)ccc2F)N(C(=O)Nc2ccc(Cl)cc2)C1` (stereo partly drawn) [Compound 17b, (2R,4R)-N2-(5-((+)-1-amino-1-(3-cyanophenyl)-3-cyclopropylpropyl)-2-fluorophenyl)-4-methoxy-N1-(4-chlorophenyl)pyrrolidine-1,2-dicarboxamide] yielded a Ki of 50 to 100 nM.

In turn, `CO[C@@H]1C[C@H](C(=O)Nc2cc(C(N)(CCC3CC3)c3ccccn3)ccc2F)N(C(=O)Nc2ccc(Cl)cn2)C1` (stereo partly drawn) [Compound 36d, (2R,4R)-N2-(5-((+)-1-amino-3-cyclopropyl-1-(pyridin-2-yl)propyl)-2-fluorophenyl)-N1-(5-chloropyridin-2-yl)-4-methoxypyrrolidine-1,2-dicarboxamide] registered a Ki of over 100 nM.

Take `CCCO[C@@H]1C[C@H](C(=O)Nc2cc(C(N)(CCC3CC3)c3ccncc3)ccc2F)N(C(=O)Nc2ccc(Cl)cn2)C1` (stereo partly drawn) [Compound 52d, (2R,4R)-N2-(5-((+)-1-amino-3-cyclopropyl-1-(pyridin-4-yl)propyl)-2-fluorophenyl)-N1-(5-chloropyridin-2-yl)-4-propoxypyrrolidine-1,2-dicarboxamide]: the Ki is under 50 nM.

The compound `CC(C)(C)[S@@+]([O-])NC(CCC1CC1)(c1cccc(C#N)c1)c1ccc(F)c(NC(=O)[C@H]2C[C@H](O)CN2C(=O)Nc2ccc(Cl)cc2)c1` (stereo partly drawn) [Compound 9b, (2R,4S)-N1-(4-chlorophenyl)-N2-(5-((+)-1-(3-cyanophenyl)-3-cyclopropyl-1-((R)-1,1-dimethylethylsulfinamido)propyl)-2-fluorophenyl)-4-hydroxypyrrolidine-1,2-dicarboxamide] came in with a Ki of over 100 nM.

Consider `CO[C@H]1C[C@@H](C(=O)Nc2cc(C(CCC3CC3)(N[S@+]([O-])C(C)(C)C)c3cccc(C#N)c3)ccc2F)N(C(=O)Nc2ccc(Cl)cc2)C1` (stereo partly drawn) [Compound 11d, (2S,4S)-N1-(4-chlorophenyl)-N2-(5-(1-(3-cyanophenyl)-3-cyclopropyl-1-((R)-1,1-dimethylethylsulfinamido)propyl)-2-fluorophenyl)-4-methoxypyrrolidine-1,2-dicarboxamide], for which the Ki is over 100 nM.

Compound `N#Cc1cccc(C(N)(CCC2CC2)c2ccc(F)c(NC(=O)[C@H]3C[C@@H](O)CN3C(=O)Nc3ccc(Br)cc3)c2)c1` (stereo partly drawn) [Compound 23b, (2R,4R)-N2-(5-((+)-1-amino-1-(3-cyanophenyl)-3-cyclopropylpropyl)-2-fluorophenyl)-N1-(4-bromophenyl)-4-hydroxypyrrolidine-1,2-dicarboxamide] showed a Ki of 50 to 100 nM.

The compound `O=C(Nc1cc(C(NCC2CC2)c2ccccc2)ccc1F)[C@H]1C[C@@H](O)CN1C(=O)Nc1ccc(Cl)cc1` (stereo partly drawn) [Compound 3a, (2R,4R)-N1-(4-chlorophenyl)-N2-(5-((+)-(cyclopropylmethylamino)(phenyl)methyl)-2-fluorophenyl)-4-hydroxypyrrolidine-1,2-dicarboxamide] showed a Ki of 50 to 100 nM.

The compound `O=C(Nc1ccccc1F)[C@H]1C[C@@H](O)CN1C(=O)Nc1ccc(Cl)cc1` [Compound 2a, (2R,4R)-N1-(4-chlorophenyl)-N2-(2-fluorophenyl)-4-hydroxypyrrolidine-1,2-dicarboxamide] returned a Ki of over 100 nM.

Regarding `CC(C)(C)[S@@+]([O-])NC(CCC1CC1)(c1cccc(C#N)c1)c1ccc(F)c(NC(=O)[C@@H]2C[C@H](O)CN2C(=O)Nc2ccc(Cl)cc2)c1` (stereo partly drawn) [Compound 10b, (2S,4S)-N1-(4-chlorophenyl)-N2-(5-((−)-1-(3-cyanophenyl)-3-cyclopropyl-1-((R)-1,1-dimethylethylsulfinamido)propyl)-2-fluorophenyl)-4-hydroxypyrrolidine-1,2-dicarboxamide], the Ki was over 100 nM.

Compound `CO[C@@H]1C[C@H](C(=O)Nc2cc(C(N)(CCC3CC3)c3ccccn3)ccc2F)N(C(=O)Nc2ccc(Cl)cn2)C1` (stereo partly drawn) [Compound 37d, (2R,4R)-N2-(5-((+)-1-amino-3-cyclopropyl-1-(pyridin-2-yl)propyl)-2-fluorophenyl)-N1-(5-chloropyridin-2-yl)-4-methoxypyrrolidine-1,2-dicarboxamide] yielded a Ki of under 50 nM.

In the case of `CO[C@]1(c2ccccc2)C[C@H](C(=O)Nc2cc(C(N)(CCC3CC3)c3ccccn3)ccc2F)N(C(=O)Nc2ccc(Cl)cc2)C1` (stereo partly drawn) [Compound 34d, (2R,4S)-N2-(5-((+)-1-amino-3-cyclopropyl-1-(pyridin-2-yl)propyl)-2-fluorophenyl)-N1-(4-chlorophenyl)-4-methoxy-4-phenylpyrrolidine-1,2-dicarboxamide], the Ki is under 50 nM.

With `CCO[C@@H]1C[C@H](C(=O)Nc2cc(C(CCC3CC3)(NC(C)=O)c3ccncc3)ccc2F)N(C(=O)Nc2ccc(Cl)cn2)C1` (stereo partly drawn) [Compound 56a, (2R,4R)-N2-(5-((+)-1-acetamido-3-cyclopropyl-1-(pyridin-4-yl)propyl)-2-fluorophenyl)-N1-(5-chloropyridin-2-yl)-4-ethoxypyrrolidine-1,2-dicarboxamide], the Ki was under 50 nM.

In the case of `N#Cc1cccc(C(N)(CCC2CC2)c2ccc(F)c(NC(=O)[C@H]3CCCN3C(=O)Nc3ccc(Cl)cn3)c2)c1` (stereo partly drawn) [Compound 13e, (R)-N2-(5-((+)-1-amino-1-(3-cyanophenyl)-3-cyclopropylpropyl)-2-fluorophenyl)-N1-(5-chloropyridin-2-yl)pyrrolidine-1,2-dicarboxamide], the Ki is over 100 nM.

For the compound `CCO[C@@H]1C[C@H](C(=O)Nc2cc(C(CCC3CC3)(NS(C)(=O)=O)c3ccncc3)ccc2F)N(C(=O)Nc2ccc(Cl)cn2)C1` (stereo partly drawn) [Compound 55a, (2R,4R)-N1-(5-chloropyridin-2-yl)-N2-(5-((+)-3-cyclopropyl-1-(methylsulfonamido)-1-(pyridin-4-yl)propyl)-2-fluorophenyl)-4-ethoxypyrrolidine-1,2-dicarboxamide], the Ki is under 50 nM.

Consider `NC(CCC1CC1)(c1ccncc1)c1ccc(F)c(NC(=O)[C@H]2C[C@H]3C[C@H]3N2)c1` (stereo partly drawn) [Compound 80c, (1R,3R,5R)-N-(5-((+)-1-amino-3-cyclopropyl-1-(pyridin-4-yl)propyl)-2-fluorophenyl)-2-azabicyclo[3.1.0]hexane-3-carboxamide], for which the Ki lay within 50 to 100 nM.

Compound “(2R,4R)-N1-(4-chlorophenyl)-N2-(5-((+)-3-cyclopropyl-1-((S)-1,1-dimethylethylsulfinamido)-1-(pyridin-2-yl)propyl)-2-fluorophenyl)-4-hydroxypyrrolidine-1,2-dicarboxamide [Compound 61b]” registered a Ki of under 50 nM.

`COc1ccc(NC(=O)N2C[C@H](OC)C[C@@H]2C(=O)Nc2cc(C(N)(CCC3CC3)c3cccc(C#N)c3)ccc2F)cc1` (stereo partly drawn) [Compound 16b, (2R,4R)-N2-(5-((+)-1-amino-1-(3-cyanophenyl)-3-cyclopropylpropyl)-2-fluorophenyl)-4-methoxy-N1-(4-methoxyphenyl)pyrrolidine-1,2-dicarboxamide] displayed a Ki of over 100 nM.

In turn, `CCC1(O)C[C@H](C(=O)Nc2cc(C(N)(CCC3CC3)c3ccccn3)ccc2F)N(C(=O)Nc2ccc(Cl)cn2)C1` (stereo partly drawn) [Compound 38d, (2R)-N2-(5-((+)-1-amino-3-cyclopropyl-1-(pyridin-2-yl)propyl)-2-fluorophenyl)-N1-(5-chloropyridin-2-yl)-4-ethyl-4-hydroxypyrrolidine-1,2-dicarboxamide] registered a Ki of under 50 nM.
